Experimental data from patent US7871635B2, “Use of compound that inactivates protein kinase A in a composition containing a cosmetically acceptable medium for lightening the skin” (Societe d'Exploitation de Produits pour les Industries …, priority 2002, dated 2011).

Columns and labels:
Adenylate cyclase = experiment: Study of adenylate cyclase activation (ATP to cAMP, radioimmunological assay); format: biochemical, rat; conditions: 1 mg/ml
Method: The influence of N-undecylenoylphenylalanine, kojic acid and arbutin on the conversion of ATP into cAMP was compared via a radioimmunological assay.
Adenylate cyclase, which converts ATP into cAMP, is extracted from rat brains via the method described in “Salamon Y., Londos C. and Rodbell M.; Anal. Biochem., 58, 1974, 541-548”; it is then activated with 10 μM of forskolin.
They are each tested separately at a concentration of 1 mg/ml. Sodium hydroxide has no effect on the parameter studied.
The activated enzyme is incubated, in the presence or absence of these products, and in the presence of 0.5 mM of ATP, for 30 minutes at 30° C.
Control cultures are incubated, in the absence of product, and in the presence of ATP. Each test is performed in triplicate.
After incubation for 30 minutes, the amount of cAMP produced is evaluated via a radioimmunological assay performed using a commercial kit; the radioactivity is measured with a scintillation counter (Topcount, Packard), a small radioactivity count reflecting small activation of adenylate cyclase.
The results given in the table below are the means of the three tests performed for each of the products. They are expressed as a percentage of enzymatic activity relative to the control group and as a percentage of inhibition.

[1] = tested on: Pigmented human epidermides (phototype IV); experiment: Chromametric measurement of the epidermal pigmentation in reconstructed human epidermides; format: cell-based; conditions: for L* (% of the control group) / a* (% of the control group) / b* (% of the control group) / b* / a* / L*: topical, 4 days; for b*: control 7.54 ± 0.00 AU; for a*: control 10.23 ± 0.51 AU; for L*: control 41.38 ± 0.69 AU
Method: Pigmented human epidermides (phototype IV) supplied by Skinethic, of 0.63 cm^2, are reconstructed from a coculture of normal human keratinocytes (skin of the forearm, donor, 2nd passage) and from normal human melanocytes (skin of the forearm, donor of phototype IV, 3rd passage). The keratinocyte/melanocyte ratio is 10:1. The cocultures are inoculated onto inert polycarbonate filters. They are cultured for 10 days in the medium supplied by Skinethic, consisting of MCDB 153 medium supplemented with 5 μg/ml of insulin, 1.5 mM of calcium and growth factors. […] The epidermides are cultured in 6-well plates containing 1 ml of the medium described above. […] The application is performed every day for 4 consecutive days. The incubation medium of the reconstructed epidermides is renewed every day for 4 consecutive days. Control epidermides are treated with a formulation free of active principle. Each test is performed in duplicate. Three days after the final topical application, the color of the epidermides is evaluated using a chromameter (Minolta) by measuring the following parameters L*, a* and b*: • L* is the lightness index. A depigmenting product should increase this parameter; • a* represents the color spectrum from […]. A depigmenting product should reduce this parameter; • b*: represents the color spectrum from […]. A depigmenting product should reduce this parameter. The results are expressed in arbitrary units (AU) of each parameter and as a percentage of the control group.

Protein kinase A = experiment: Study of protein kinase A activity (phosphorylation of histone H1); format: biochemical, bovine; conditions: 1 mg/ml
Method: The influence of N-undecylenoylphenylalanine, kojic acid and arbutin on the phosphorylation of […] with protein kinase A (PK A) was compared. Protein kinase A is extracted from bovine brains via the method described in: “[…]., Sano M., Hayashi K., Inoue T., Naito […]. Biol. Chem., 265, 1990, 5267-5272”. […] Sodium hydroxide has no effect on the parameter studied. […] Control cultures are incubated, in the absence of product, and in the presence of radioactive ATP and histone H1. Each test is performed in triplicate. […] The results given in the table below are the means of the three tests performed for each of the products. They are expressed as a percentage of enzymatic activity relative to the control group and as a percentage of inhibition.

MC1R receptors = biological target: T1, MC1R receptors (Mus musculus, UniProt Q01727); experiment: Affinity study on MC1R receptors ([125I]NDP-α-MSH binding); conditions: for inhibition at 100 µg/mL / inhibition at 1000 µg/mL: read-out: Inhibition of specific binding by the test products; for Activity relative to the control (percentage of specific binding): [125I]NDP-α-MSH 0.05 nM, 90 minutes at 22° C.
T1 construct: isolated from cell membranes of mouse melanocytes of the B16/F1 line; endogenous in cells; host or cells: B16/F1 mouse melanocyte (melanoma) cell membranes
Method: MC1R receptors are isolated from cell membranes of mouse melanocytes of the B16/F1 line via the method described in: Siegrist W., Oestreicher M., Stutz M., Girard J. and […]., 8, 1988, 323-343”. […] Sodium hydroxide has no effect on the parameter studied. The MC1R receptors are incubated, in the presence or absence of these products, with an iodine-125 labeled radioactive ligand, the […]-α-melanocyte […] hormone [^125I]NDP-α-MSH at a concentration of 0.05 nM, for 90 minutes at 22° C. Control cultures are incubated, in the absence of product, and in the presence of the radioactive ligand. Each test is performed in triplicate. After incubation for 90 minutes, the cell membranes are rapidly filtered and the filters are washed several times with cold buffer. The amount of radioactive ligand bound to the MC1R receptors is measured using a scintillation counter (Topcount, Packard). The results given in the table below are the means of the three tests performed for each of the products. They are expressed as a percentage of specific binding relative to the control group and as a percentage of inhibition of this binding.

[2] = tested on: B16/F1 melanocyte cultures; experiment: Extracellular melanin content in B16/F1 melanocyte cultures; format: cell-based, mouse; conditions: at 40 μg/ml, 72 hours; for inhibition at 40 µg/mL: Mus musculus, B16-F1, read-out: Inhibition of extracellular melanin production; for Extracellular melanin: control 43 ± 11 μg/ml
Method: Mouse melanocytes of the B16/F1 line are inoculated in 96-well culture plates at a density of 1500 cells/well. […] The cells are used at 60% of confluence, i.e. 4 days after inoculation. The MCM medium has the following composition: […] N-Undecylenoylphenylalanine is diluted to 4 mg/ml in decinormal aqueous sodium hydroxide solution. It is tested at 40 μg/ml in the MCM medium. Sodium hydroxide has no effect on the parameters analyzed. […] Given its toxicity, it is not tested at 40 μg/ml. […] Control cultures are incubated, in the absence of product, in the MCM medium. These control cultures are prepared on each culture plate. Each test is performed six times. After incubation for 72 hours, the incubation media of the cells (n=6) are taken up and stored at -80° C. until the time of evaluation of the effects. The extracellular melanin is quantified by spectrophotometry at 450 nm. A melanin calibration range is prepared in parallel. The results are expressed as μg/ml of extracellular […] a percentage of inhibition relative to the control group.

[3] = listed as N-undecylenoylphenylalanine

T1 sequence (Q01727 whole entry): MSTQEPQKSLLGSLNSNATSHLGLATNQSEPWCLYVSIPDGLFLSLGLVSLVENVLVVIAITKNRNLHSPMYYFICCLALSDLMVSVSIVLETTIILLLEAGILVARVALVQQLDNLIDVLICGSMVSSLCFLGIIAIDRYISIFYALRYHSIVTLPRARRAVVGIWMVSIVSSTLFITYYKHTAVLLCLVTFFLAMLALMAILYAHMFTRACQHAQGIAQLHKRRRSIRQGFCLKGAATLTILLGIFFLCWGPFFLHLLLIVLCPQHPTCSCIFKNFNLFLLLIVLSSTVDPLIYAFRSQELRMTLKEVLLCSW

Row | Structure (SMILES) | Inhibition of adenylate cyclase activity (Adenylate cyclase) [%] | L* (% of the control group) ([1]; formulated at 1% (w/v)) | a* (% of the control group) ([1]; formulated at 1% (w/v)) | b* (% of the control group) ([1]; formulated at 1% (w/v)) | b* ([1]; formulated at 1% (w/v)) [AU] | a* ([1]; formulated at 1% (w/v)) [AU] | L* ([1]; formulated at 1% (w/v)) [AU] | L* (% of the control group) ([1]; formulated at 3% (w/v)) | a* (% of the control group) ([1]; formulated at 3% (w/v)) [%] | b* (% of the control group) ([1]; formulated at 3% (w/v)) [%] | b* ([1]; formulated at 3% (w/v)) [AU] | a* ([1]; formulated at 3% (w/v)) [AU] | L* ([1]; formulated at 3% (w/v)) [AU] | Inhibition of protein kinase A activity (Protein kinase A) [%] | inhibition at 100 µg/mL (MC1R receptors; at 0.1 mg/ml) [%] | inhibition at 1000 µg/mL (MC1R receptors; at 1 mg/ml) [%] | inhibition at 40 µg/mL [2] [%] | Extracellular melanin [2] [µg/mL] | also measured
1 | O=c1cc(CO)occ1O [Kojic acid, kojic acid] | 55 | +3% | +7% | +3% | 7.67 ± 0.03 | 10.90 ± 0.51 | 40.11 ± 1.41 | 0% | −8 | −5 | 7.13 ± 0.09 | 9.36 ± 1.02 | 41.69 ± 0.65 | 0 | 0 | 0 | 70 | 13 ± 2 | Inhibition of adenylate cyclase activity (Adenylate cyclase; listed as kojic acid): moderate effect; effect on the chromametric parameters L*, a* and b* ([1]; topical application at 1% and 3% (w/v) in an emulsion): no significant effect; displacement of the specific binding of the ligand [125I]NDP-α-MSH (MC1R receptors; at the test concentrations (0.1 mg/ml and 1 mg/ml)): neither arbutin nor kojic acid, which are the reference depigmenting compounds, displaces the specific binding
2 | C=CCCCCCCCCC(=O)NC(Cc1ccccc1)C(=O)O (stereo not drawn) [N-Undecylenoylphenylalanine, N-(ω-undecylenoyl)phenylalanine] | 100 | 0% | −12% | −21% | 5.96 ± 0.42 | 9.01 ± 1.33 | 41.34 ± 1.15 | +9% | −14 | −29 | 5.38 ± 0.06 | 8.78 ± 0.52 | 45.228 ± 1.49 | 100 | 42 | 96 | 72 | 12 ± 1 | Enzymatic activity relative to the control (adenylate cyclase) (Adenylate cyclase; forskolin 10 μM, ATP 0.5 mM, 30 minutes at 30° C.): −16.0 ± 0.5%; Inhibition of adenylate cyclase activity (Adenylate cyclase; [3]): total inactivation; reduction of the a* color parameter ([1]; concentration of 3% (w/v)): 14%; reduction of the b* color parameter ([1]; concentration of 3% (w/v)): 29%; L* (% of the control group) ([1]; formulated at 3% (w/v), listed as N-undecylenoylphenylalanine): 9%; inhibition of the b* color parameter ([1]; topical application at 1% (w/v) in an emulsion): 15%; Enzymatic activity relative to the control (protein kinase A) (Protein kinase A; cAMP 3 μM, histone H1 200 μg/ml, 20 minutes at 30° C.): −0.4 ± 0.3%; Inhibition of protein kinase A activity (Protein kinase A; [3]): totally inhibits; Inhibition of specific binding by the test products (MC1R receptors; at 0.1 mg/ml): 42.3%; Activity relative to the control (percentage of specific binding) (MC1R receptors; at 0.1 mg/ml): 57.70 ± 2.38%; Inhibition of specific binding by the test products (MC1R receptors; at 1 mg/ml): 95.8%; Activity relative to the control (percentage of specific binding) (MC1R receptors; at 1 mg/ml): 4.20 ± 0.86%
